Laboratory results taken from ChEMBL document CHEMBL6074684, “Structure-activity relationship study of novel evodiamine amino acid conjugates with potent anti-colorectal cancer efficacy” (Eur J Med Chem, 2025).

Legend:
Type in all cases: functional, cell-based
SGC-7901 = assay: Antiproliferative activity against human SGC-7901 cells assessed as inhibition of cell growth incubated for 72 hrs by MTT assay; details: SGC-7901, 72 h
HGC-27 = assay: Antiproliferative activity against human HGC-27 cells assessed as inhibition of cell growth incubated for 72 hrs by MTT assay; details: HGC-27, 72 h
HCT-116 = assay: Antiproliferative activity against human […] cells assessed as inhibition of cell growth incubated for 72 hrs by MTT assay; details: HCT-116, 72 h
MCF7 = assay: Antiproliferative activity against human MCF7 cells assessed as inhibition of cell growth incubated for 72 hrs by MTT assay; details: MCF7, 72 h
SK-HEP1 = assay: Antiproliferative activity against human SK-HEP1 cells assessed as inhibition of cell growth incubated for 72 hrs by MTT assay; details: SK-HEP1, 72 h
MGC-803 = assay: Antiproliferative activity against human MGC-803 cells assessed as inhibition of cell growth incubated for 72 hrs by MTT assay; details: MGC-803, 72 h
LoVo = assay: Antiproliferative activity against human LoVo cells assessed as inhibition of cell growth incubated for 72 hrs by MTT assay
RKO = assay: Antiproliferative activity against human RKO cells assessed as inhibition of cell growth incubated for 72 hrs by MTT assay
Huh-7 = assay: Antiproliferative activity against human Huh-7 cells assessed as inhibition of cell growth incubated for 72 hrs by MTT assay; details: Huh-7, 72 h
HT-29 = assay: Antiproliferative activity against human HT-29 cells assessed as inhibition of cell growth incubated for 72 hrs by MTT assay; details: HT-29, 72 h

SMILES	IC50 (SGC-7901) [nM]	IC50 (HGC-27) [nM]	IC50 (HCT-116) [nM]	IC50 (MCF7) [nM]	IC50 (SK-HEP1) [nM]	IC50 (MGC-803) [nM]	IC50 (LoVo) [nM]	IC50 (RKO) [nM]	IC50 (Huh-7) [nM]	IC50 (HT-29) [nM]
CSCC[C@H](NC(=O)OC(C)(C)C)C(=O)Oc1ccc2[nH]c3c(c2c1)CCN1C(=O)c2cc(F)ccc2N(c2cccc(F)c2)[C@H]31	510	210	360	780	680	330	200	140	210	330
CC(C)C[C@H](NC(=O)OC(C)(C)C)C(=O)Oc1ccc2[nH]c3c(c2c1)CCN1C(=O)c2cc(F)ccc2N(c2cccc(F)c2)[C@H]31	690	300	370	1100	650	320	220	150	140	190
CC(C)C[C@H](NC(=O)OC(C)(C)C)C(=O)Oc1ccc2[nH]c3c(c2c1)CCN1C(=O)c2cc(F)ccc2N(c2cccc(F)c2)[C@@H]31	41800	18600	16800	22700	35100	7560	10200	10500	9730	21400
CSCC[C@H](NC(=O)OC(C)(C)C)C(=O)Oc1ccc2[nH]c3c(c2c1)CCN1C(=O)c2cc(F)ccc2N(c2cccc(F)c2)[C@@H]31	46100	28600	20200	50500	38500	17800	14900	20500	13800	28700
CC(C)(C)OC(=O)NCC(=O)Oc1ccc2[nH]c3c(c2c1)CCN1C(=O)c2cc(F)ccc2N(c2cccc(F)c2)[C@H]31	480	200	200	1190	1390	210	170	95	160	260
CCC(C)[C@H](NC(=O)OC(C)(C)C)C(=O)Oc1ccc2[nH]c3c(c2c1)CCN1C(=O)c2cc(F)ccc2N(c2cccc(F)c2)[C@H]31 (some centres undefined)	1570	520	550	810	970	480	320	230	310	440
CC(C)[C@H](NC(=O)OC(C)(C)C)C(=O)Oc1ccc2[nH]c3c(c2c1)CCN1C(=O)c2cc(F)ccc2N(c2cccc(F)c2)[C@H]31	810	420	430	980	1150	380	290	200	280	340
CC(C)(C)OC(=O)N[C@@H](Cc1ccccc1)C(=O)Oc1ccc2[nH]c3c(c2c1)CCN1C(=O)c2cc(F)ccc2N(c2cccc(F)c2)[C@@H]31	47700	22700	26200	47300	37800	15900	15700	19500	11800	30500
CC(C)(C)OC(=O)NCC(=O)Oc1ccc2[nH]c3c(c2c1)CCN1C(=O)c2cc(F)ccc2N(c2cccc(F)c2)[C@@H]31	42600	32100	33100	38900	30500	29600	26400	38600	17200	24100
CC(C)(C)OC(=O)N[C@@H](Cc1cnc[nH]1)C(=O)Oc1ccc2[nH]c3c(c2c1)CCN1C(=O)c2cc(F)ccc2N(c2cccc(F)c2)[C@@H]31	66500	23700	21000	47000	33500	15500	12400	16300	12800	28300
CC(C)(C)OC(=O)N[C@@H](COCc1ccccc1)C(=O)Oc1ccc2[nH]c3c(c2c1)CCN1C(=O)c2cc(F)ccc2N(c2cccc(F)c2)[C@H]31	540	320	400	830	650	410	190	110	300	380
CC(C)(C)OC(=O)N[C@@H](Cc1ccccc1)C(=O)Oc1ccc2[nH]c3c(c2c1)CCN1C(=O)c2cc(F)ccc2N(c2cccc(F)c2)[C@H]31	490	280	360	950	770	220	230	90	200	430
O=C1c2cc(F)ccc2N(c2cccc(F)c2)[C@H]2c3[nH]c4ccc(O)cc4c3CCN12			350				130	100		180
CC(C)(C)OC(=O)N[C@@H](Cc1c[nH]c2ccccc12)C(=O)Oc1ccc2[nH]c3c(c2c1)CCN1C(=O)c2cc(F)ccc2N(c2cccc(F)c2)[C@@H]31	67300	25600	24200	30600	36600	18600	18300	15900	13500	30200
CC(C)(C)OC(=O)N[C@@H](COCc1ccccc1)C(=O)Oc1ccc2[nH]c3c(c2c1)CCN1C(=O)c2cc(F)ccc2N(c2cccc(F)c2)[C@@H]31	57100	20600	24600	22100	35900	16200	15300	16800	10100	29400
CCC(C)[C@H](NC(=O)OC(C)(C)C)C(=O)Oc1ccc2[nH]c3c(c2c1)CCN1C(=O)c2cc(F)ccc2N(c2cccc(F)c2)[C@@H]31 (some centres undefined)	> 100000	55700	> 100000	69800	62400	> 100000	55800	> 100000	46000	52500
CC(C)[C@H](NC(=O)OC(C)(C)C)C(=O)Oc1ccc2[nH]c3c(c2c1)CCN1C(=O)c2cc(F)ccc2N(c2cccc(F)c2)[C@@H]31	44300	22300	29000	30400	37800	20800	21900	11900	14200	25800
CC(C)(C)OC(=O)N[C@@H](Cc1cnc[nH]1)C(=O)Oc1ccc2[nH]c3c(c2c1)CCN1C(=O)c2cc(F)ccc2N(c2cccc(F)c2)[C@H]31	230	160	360	740	770	200	120	110	270	360
C[C@H](NC(=O)OC(C)(C)C)C(=O)Oc1ccc2[nH]c3c(c2c1)CCN1C(=O)c2cc(F)ccc2N(c2cccc(F)c2)[C@@H]31	40200	20300	18200	28500	26600	11300	19700	15900	11700	18600
CC(C)(C)OC(=O)N[C@@H](Cc1c[nH]c2ccccc12)C(=O)Oc1ccc2[nH]c3c(c2c1)CCN1C(=O)c2cc(F)ccc2N(c2cccc(F)c2)[C@H]31	1480	330	280	1280	900	690	250	80	400	540
C[C@H](NC(=O)OC(C)(C)C)C(=O)Oc1ccc2[nH]c3c(c2c1)CCN1C(=O)c2cc(F)ccc2N(c2cccc(F)c2)[C@H]31	630	270	370	1980	2650	310	230	120	160	280
